Results: the kinase profiling compilation of Christmann-Franck et al. (2016)

Columns and labels:
Assay in all cases: KINOMEscan competition binding
Details in all cases: compound 10.0 µM
BLK (human) = BLK (human) (UniProt P51451)
CAMKK2 (human) = CAMKK2 (human) (UniProt Q96RR4)
CAMK2D (human) = CAMK2D (human) (UniProt Q13557)
RPS6KA1 KD1 (human) = RPS6KA1 KD1 (human) (UniProt Q15418)
PAK2 (human) = PAK2 (human) (UniProt Q13177)
SRPK1 (human) = SRPK1 (human) (UniProt Q96SB4)
EPHB3 (human) = EPHB3 (human) (UniProt P54753)
MAP3K11 (human) = MAP3K11 (human) (UniProt Q16584)
STK16 (human) = STK16 (human) (UniProt O75716)
ANKK1 (human) = ANKK1 (human) (UniProt Q8NFD2)
STK17B (human) = STK17B (human) (UniProt O94768)
FES (human) = FES (human) (UniProt P07332)
EPHB2 (human) = EPHB2 (human) (UniProt P29323)
MARK1 (human) = MARK1 (human) (UniProt Q9P0L2)
BMPR1B (human) = BMPR1B (human) (UniProt O00238)
CLK1 (human) = CLK1 (human) (UniProt P49759)
[1] = test system: EIF2AK4 KD2 (human), Q9P2K8 [S808G]
CDK17 (human) = CDK17 (human) (UniProt Q00537)
SGK110 (human) = SGK110 (human) (UniProt P0C264)
AKT3 (human) = AKT3 (human) (UniProt Q9Y243)
PRKCD (human) = PRKCD (human) (UniProt Q05655)
[2] = molecular target: JAK3 JH1 catalytic (human) (UniProt P52333)
NEK2 (human) = NEK2 (human) (UniProt P51955)
CDC2L2 (human) = CDC2L2 (human) (UniProt Q9UQ88)
[3] = molecular target: JAK1 JH2 pseudokinase (human) (UniProt P23458)
DMPK (human) = DMPK (human) (UniProt Q09013)
PKN1 (human) = PKN1 (human) (UniProt Q16512)
FLT4 (human) = FLT4 (human) (UniProt P35916)
LATS2 (human) = LATS2 (human) (UniProt Q9NRM7)
MAPK1 (human) = MAPK1 (human) (UniProt P28482)
STK17A (human) = STK17A (human) (UniProt Q9UEE5)
MST1R (human) = MST1R (human) (UniProt Q04912)
AAK1 (human) = AAK1 (human) (UniProt Q2M2I8)
STK32C (human) = STK32C (human) (UniProt Q86UX6)
LATS1 (human) = LATS1 (human) (UniProt O95835)
CSNK1G1 (human) = CSNK1G1 (human) (UniProt Q9HCP0)
NEK1 (human) = NEK1 (human) (UniProt Q96PY6)
PRKCE (human) = PRKCE (human) (UniProt Q02156)
[4] = test system: FLT3 (human), P36888 [ITD]
CHEK1 (human) = CHEK1 (human) (UniProt O14757)

Chain of JAK3 JH1 catalytic (human) (P52333 whole entry, looked up): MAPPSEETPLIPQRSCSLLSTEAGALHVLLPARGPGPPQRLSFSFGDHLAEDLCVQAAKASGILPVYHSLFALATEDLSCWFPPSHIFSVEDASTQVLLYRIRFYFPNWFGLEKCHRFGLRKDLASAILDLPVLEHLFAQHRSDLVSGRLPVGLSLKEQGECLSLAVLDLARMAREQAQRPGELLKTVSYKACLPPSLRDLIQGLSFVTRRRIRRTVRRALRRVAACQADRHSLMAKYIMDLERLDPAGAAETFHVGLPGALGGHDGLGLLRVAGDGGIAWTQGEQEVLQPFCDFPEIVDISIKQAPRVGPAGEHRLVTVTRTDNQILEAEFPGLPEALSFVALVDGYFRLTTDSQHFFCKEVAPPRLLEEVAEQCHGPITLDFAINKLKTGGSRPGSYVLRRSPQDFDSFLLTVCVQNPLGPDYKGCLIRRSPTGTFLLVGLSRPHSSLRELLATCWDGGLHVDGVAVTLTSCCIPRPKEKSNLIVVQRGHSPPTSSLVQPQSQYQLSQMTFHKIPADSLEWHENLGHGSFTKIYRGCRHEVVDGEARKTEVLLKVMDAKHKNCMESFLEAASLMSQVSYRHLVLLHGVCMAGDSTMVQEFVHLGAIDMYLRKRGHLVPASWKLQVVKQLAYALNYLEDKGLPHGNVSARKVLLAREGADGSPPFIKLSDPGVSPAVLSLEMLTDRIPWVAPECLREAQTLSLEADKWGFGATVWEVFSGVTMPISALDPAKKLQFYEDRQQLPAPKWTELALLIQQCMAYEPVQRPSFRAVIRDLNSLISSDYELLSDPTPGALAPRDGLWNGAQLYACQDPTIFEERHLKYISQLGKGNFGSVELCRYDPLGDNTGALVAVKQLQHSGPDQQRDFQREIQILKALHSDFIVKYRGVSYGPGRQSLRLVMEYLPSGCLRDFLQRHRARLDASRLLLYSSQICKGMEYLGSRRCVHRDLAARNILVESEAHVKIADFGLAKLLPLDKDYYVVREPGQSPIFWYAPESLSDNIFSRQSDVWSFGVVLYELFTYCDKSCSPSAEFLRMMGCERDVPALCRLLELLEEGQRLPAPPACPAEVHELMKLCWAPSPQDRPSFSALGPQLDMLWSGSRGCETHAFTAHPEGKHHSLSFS
Chain of LATS2 (human) (Q9NRM7 whole entry, looked up): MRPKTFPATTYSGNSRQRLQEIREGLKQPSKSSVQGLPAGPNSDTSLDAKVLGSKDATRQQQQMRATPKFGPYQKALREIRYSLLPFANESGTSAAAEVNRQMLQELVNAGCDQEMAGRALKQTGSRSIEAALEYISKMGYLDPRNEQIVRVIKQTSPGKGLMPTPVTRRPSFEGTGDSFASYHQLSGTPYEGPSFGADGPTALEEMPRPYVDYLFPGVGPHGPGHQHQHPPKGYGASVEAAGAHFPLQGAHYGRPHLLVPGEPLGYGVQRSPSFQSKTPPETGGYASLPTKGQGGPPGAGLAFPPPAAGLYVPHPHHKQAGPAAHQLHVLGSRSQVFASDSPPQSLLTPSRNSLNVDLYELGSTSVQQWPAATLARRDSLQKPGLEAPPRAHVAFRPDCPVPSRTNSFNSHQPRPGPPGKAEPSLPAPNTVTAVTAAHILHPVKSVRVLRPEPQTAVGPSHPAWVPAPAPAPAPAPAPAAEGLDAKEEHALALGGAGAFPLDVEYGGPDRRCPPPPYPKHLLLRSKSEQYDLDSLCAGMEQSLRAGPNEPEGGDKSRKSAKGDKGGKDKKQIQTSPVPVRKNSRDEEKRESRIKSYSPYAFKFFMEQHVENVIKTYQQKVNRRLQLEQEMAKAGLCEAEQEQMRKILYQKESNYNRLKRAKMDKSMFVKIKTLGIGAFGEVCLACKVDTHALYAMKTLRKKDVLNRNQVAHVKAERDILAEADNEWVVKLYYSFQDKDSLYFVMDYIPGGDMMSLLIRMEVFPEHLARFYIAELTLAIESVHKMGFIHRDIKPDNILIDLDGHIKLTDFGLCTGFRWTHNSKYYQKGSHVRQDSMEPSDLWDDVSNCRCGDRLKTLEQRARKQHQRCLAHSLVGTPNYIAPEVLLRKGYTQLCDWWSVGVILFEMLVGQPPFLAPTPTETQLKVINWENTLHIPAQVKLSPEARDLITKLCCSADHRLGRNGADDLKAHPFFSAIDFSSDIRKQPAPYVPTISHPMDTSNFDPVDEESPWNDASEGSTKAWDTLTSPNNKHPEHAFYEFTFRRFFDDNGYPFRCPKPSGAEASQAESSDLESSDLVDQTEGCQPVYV
Chain of JAK1 JH2 pseudokinase (human) (P23458 whole entry, looked up): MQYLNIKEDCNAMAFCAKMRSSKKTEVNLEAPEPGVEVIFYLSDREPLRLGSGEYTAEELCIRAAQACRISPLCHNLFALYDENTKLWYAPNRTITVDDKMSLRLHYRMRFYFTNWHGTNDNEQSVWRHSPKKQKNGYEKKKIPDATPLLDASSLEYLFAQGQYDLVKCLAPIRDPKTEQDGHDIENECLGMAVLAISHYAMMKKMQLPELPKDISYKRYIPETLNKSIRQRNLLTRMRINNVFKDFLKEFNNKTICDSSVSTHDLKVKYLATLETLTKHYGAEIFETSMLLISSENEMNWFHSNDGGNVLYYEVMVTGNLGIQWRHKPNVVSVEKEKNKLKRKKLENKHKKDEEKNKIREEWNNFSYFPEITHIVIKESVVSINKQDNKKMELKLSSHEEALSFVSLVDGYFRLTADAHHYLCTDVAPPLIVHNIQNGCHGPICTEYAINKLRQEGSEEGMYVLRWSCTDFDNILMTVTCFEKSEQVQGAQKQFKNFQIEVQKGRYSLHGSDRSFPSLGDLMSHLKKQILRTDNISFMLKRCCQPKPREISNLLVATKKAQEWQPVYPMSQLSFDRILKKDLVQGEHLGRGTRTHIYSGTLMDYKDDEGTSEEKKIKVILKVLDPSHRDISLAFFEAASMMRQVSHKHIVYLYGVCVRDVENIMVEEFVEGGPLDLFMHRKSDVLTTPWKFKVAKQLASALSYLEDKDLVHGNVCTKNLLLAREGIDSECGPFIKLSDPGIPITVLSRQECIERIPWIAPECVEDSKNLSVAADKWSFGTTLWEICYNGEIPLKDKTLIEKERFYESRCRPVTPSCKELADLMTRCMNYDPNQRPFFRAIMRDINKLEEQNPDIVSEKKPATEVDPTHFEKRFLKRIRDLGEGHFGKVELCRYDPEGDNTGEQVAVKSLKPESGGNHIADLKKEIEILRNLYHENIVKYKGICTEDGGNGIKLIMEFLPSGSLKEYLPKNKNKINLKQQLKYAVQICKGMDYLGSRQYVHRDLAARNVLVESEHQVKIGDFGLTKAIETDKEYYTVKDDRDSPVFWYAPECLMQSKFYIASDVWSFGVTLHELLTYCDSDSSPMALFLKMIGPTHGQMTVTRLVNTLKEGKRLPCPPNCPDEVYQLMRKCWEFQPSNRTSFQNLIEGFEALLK
Chain of AAK1 (human) (Q2M2I8 whole entry, looked up): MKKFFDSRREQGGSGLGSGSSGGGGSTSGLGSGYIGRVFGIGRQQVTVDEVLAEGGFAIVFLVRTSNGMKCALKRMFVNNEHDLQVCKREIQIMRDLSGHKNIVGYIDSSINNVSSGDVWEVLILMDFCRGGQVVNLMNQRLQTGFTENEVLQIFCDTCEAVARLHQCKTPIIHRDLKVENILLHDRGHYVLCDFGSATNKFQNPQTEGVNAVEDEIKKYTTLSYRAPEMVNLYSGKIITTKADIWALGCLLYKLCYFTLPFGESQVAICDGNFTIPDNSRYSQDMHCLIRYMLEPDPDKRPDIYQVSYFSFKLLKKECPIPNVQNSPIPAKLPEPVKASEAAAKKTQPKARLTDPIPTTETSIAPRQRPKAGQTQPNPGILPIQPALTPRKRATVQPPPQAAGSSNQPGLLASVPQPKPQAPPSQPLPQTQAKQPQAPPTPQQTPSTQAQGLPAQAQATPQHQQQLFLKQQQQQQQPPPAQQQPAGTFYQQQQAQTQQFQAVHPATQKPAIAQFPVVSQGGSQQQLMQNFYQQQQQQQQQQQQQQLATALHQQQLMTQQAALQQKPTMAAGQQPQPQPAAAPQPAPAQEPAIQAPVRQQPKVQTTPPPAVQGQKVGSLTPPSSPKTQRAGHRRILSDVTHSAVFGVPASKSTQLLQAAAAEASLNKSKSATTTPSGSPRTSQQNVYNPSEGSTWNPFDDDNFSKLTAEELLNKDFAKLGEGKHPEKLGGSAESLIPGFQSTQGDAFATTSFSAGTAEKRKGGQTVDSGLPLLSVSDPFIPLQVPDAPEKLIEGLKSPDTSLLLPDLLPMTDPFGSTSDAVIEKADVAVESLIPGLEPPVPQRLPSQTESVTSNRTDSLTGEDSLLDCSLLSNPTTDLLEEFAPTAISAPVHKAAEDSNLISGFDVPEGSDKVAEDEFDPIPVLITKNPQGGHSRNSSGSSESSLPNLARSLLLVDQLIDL
Chain of STK32C (human) (Q86UX6 whole entry, looked up): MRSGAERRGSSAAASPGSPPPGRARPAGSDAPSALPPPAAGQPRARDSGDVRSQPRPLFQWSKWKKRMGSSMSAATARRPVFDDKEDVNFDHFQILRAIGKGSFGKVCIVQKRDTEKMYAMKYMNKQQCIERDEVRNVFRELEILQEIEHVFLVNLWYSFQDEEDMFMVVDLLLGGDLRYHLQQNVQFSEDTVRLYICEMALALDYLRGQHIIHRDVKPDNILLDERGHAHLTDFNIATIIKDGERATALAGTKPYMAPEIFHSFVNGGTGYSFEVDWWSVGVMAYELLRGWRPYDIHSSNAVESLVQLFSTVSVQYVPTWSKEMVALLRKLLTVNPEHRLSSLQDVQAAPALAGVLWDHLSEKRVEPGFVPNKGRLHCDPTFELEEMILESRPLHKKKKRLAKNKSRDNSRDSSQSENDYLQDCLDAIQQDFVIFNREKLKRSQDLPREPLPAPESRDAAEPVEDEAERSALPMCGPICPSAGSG

| Structure (SMILES) | kinase still bound, per cent of control (CAMKK2 (human)) [%] | kinase still bound, per cent of control (CAMK2D (human)) [%] | kinase still bound, per cent of control (RPS6KA1 KD1 (human)) [%] | kinase still bound, per cent of control (PAK2 (human)) [%] | kinase still bound, per cent of control (SRPK1 (human)) [%] | kinase still bound, per cent of control (EPHB3 (human)) [%] | kinase still bound, per cent of control (MAP3K11 (human)) [%] | kinase still bound, per cent of control (STK16 (human)) [%] | kinase still bound, per cent of control (ANKK1 (human)) [%] | kinase still bound, per cent of control (STK17B (human)) [%] | kinase still bound, per cent of control (EPHB2 (human)) [%] | kinase still bound, per cent of control (MARK1 (human)) [%] | kinase still bound, per cent of control (CLK1 (human)) [%] | kinase still bound, per cent of control [1] [%] | kinase still bound, per cent of control (CDK17 (human)) [%] | kinase still bound, per cent of control (SGK110 (human)) [%] | kinase still bound, per cent of control (AKT3 (human)) [%] | kinase still bound, per cent of control (PRKCD (human)) [%] | kinase still bound, per cent of control [2] [%] | kinase still bound, per cent of control (NEK2 (human)) [%] | further results |
| --- | --- | --- | --- | --- | --- | --- | --- | --- | --- | --- | --- | --- | --- | --- | --- | --- | --- | --- | --- | --- | --- |
| CCCS(=O)(=O)Nc1ccc(F)c(C(=O)c2c[nH]c3ncc(-c4ccc(Cl)cc4)cc23)c1F | 100 | 100 | 57 | 80 | 92 | 100 | 81 | 84 | 91 | 88 | 99 | 100 | 70 | 0.55 | 86 | 100 | 100 | 100 | 83 | 71 | kinase still bound, per cent of control (BLK (human)): 2.2%; kinase still bound, per cent of control (FES (human)): 41%; kinase still bound, per cent of control (BMPR1B (human)): 67%; kinase still bound, per cent of control (CDC2L2 (human)): 91%; kinase still bound, per cent of control [3]: 100%; kinase still bound, per cent of control (DMPK (human)): 67%; kinase still bound, per cent of control (PKN1 (human)): 78%; kinase still bound, per cent of control (FLT4 (human)): 82%; kinase still bound, per cent of control (LATS2 (human)): 75%; kinase still bound, per cent of control (MAPK1 (human)): 100%; kinase still bound, per cent of control (STK17A (human)): 62%; kinase still bound, per cent of control (MST1R (human)): 100%; kinase still bound, per cent of control (AAK1 (human)): 100%; kinase still bound, per cent of control (STK32C (human)): 100%; kinase still bound, per cent of control (LATS1 (human)): 100%; kinase still bound, per cent of control (CSNK1G1 (human)): 100%; kinase still bound, per cent of control (NEK1 (human)): 100%; kinase still bound, per cent of control (PRKCE (human)): 87% |
| CCC(=O)N1CCN(c2ccc(-n3c(=O)ccc4cnc5ccc(-c6cnc7ccccc7c6)cc5c43)cc2C(F)(F)F)CC1 | 85 | 72 | 68 | 100 | 100 | 85 | 69 | 18 | 93 | 67 | 100 | 100 | 49 | 99 | 97 | 94 | 77 | 82 | 100 | 90 | kinase still bound, per cent of control (BLK (human)): 75%; kinase still bound, per cent of control (FES (human)): 41%; kinase still bound, per cent of control [4]: 29%; kinase still bound, per cent of control (CDC2L2 (human)): 100%; kinase still bound, per cent of control [3]: 76%; kinase still bound, per cent of control (DMPK (human)): 77%; kinase still bound, per cent of control (PKN1 (human)): 92%; kinase still bound, per cent of control (FLT4 (human)): 74%; kinase still bound, per cent of control (LATS2 (human)): 100%; kinase still bound, per cent of control (MAPK1 (human)): 100%; kinase still bound, per cent of control (STK17A (human)): 93%; kinase still bound, per cent of control (MST1R (human)): 55%; kinase still bound, per cent of control (AAK1 (human)): 75%; kinase still bound, per cent of control (STK32C (human)): 100%; kinase still bound, per cent of control (LATS1 (human)): 100%; kinase still bound, per cent of control (CSNK1G1 (human)): 100%; kinase still bound, per cent of control (NEK1 (human)): 89%; kinase still bound, per cent of control (PRKCE (human)): 86% |
| CCOc1cc2ncc(C#N)c(Nc3ccc(OCc4ccccn4)c(Cl)c3)c2cc1NC(=O)/C=C/CN(C)C | 89 | 100 | 57 | 34 | 100 | 100 | 85 | 96 | 100 | 46 | 86 | 94 | 84 | 1.4 | 100 | 100 | 100 | 100 | 100 | 12 | kinase still bound, per cent of control (BLK (human)): 3%; kinase still bound, per cent of control (BMPR1B (human)): 81%; kinase still bound, per cent of control [4]: 86%; kinase still bound, per cent of control (CDC2L2 (human)): 100%; kinase still bound, per cent of control (CHEK1 (human)): 65%; kinase still bound, per cent of control [3]: 100%; kinase still bound, per cent of control (DMPK (human)): 98%; kinase still bound, per cent of control (PKN1 (human)): 100%; kinase still bound, per cent of control (FLT4 (human)): 100%; kinase still bound, per cent of control (LATS2 (human)): 100%; kinase still bound, per cent of control (MAPK1 (human)): 100%; kinase still bound, per cent of control (STK17A (human)): 37%; kinase still bound, per cent of control (MST1R (human)): 100%; kinase still bound, per cent of control (AAK1 (human)): 68%; kinase still bound, per cent of control (STK32C (human)): 100%; kinase still bound, per cent of control (LATS1 (human)): 90%; kinase still bound, per cent of control (NEK1 (human)): 70%; kinase still bound, per cent of control (PRKCE (human)): 100% |
| CC[C@@H]1C(=O)N(C)c2cnc(Nc3ccc(C(=O)NC4CCN(C)CC4)cc3OC)nc2N1C1CCCC1 | 1.9 | 100 | 100 | 100 | 100 | 100 | 100 | 14 | 100 | 100 | 100 | 100 | 100 | 100 | 100 | 100 | 100 | 100 | 100 | 17 | kinase still bound, per cent of control (BMPR1B (human)): 100%; kinase still bound, per cent of control [4]: 100%; kinase still bound, per cent of control (CDC2L2 (human)): 100%; kinase still bound, per cent of control (CHEK1 (human)): 100%; kinase still bound, per cent of control [3]: 100%; kinase still bound, per cent of control (DMPK (human)): 100%; kinase still bound, per cent of control (PKN1 (human)): 100%; kinase still bound, per cent of control (FLT4 (human)): 100%; kinase still bound, per cent of control (LATS2 (human)): 100%; kinase still bound, per cent of control (MAPK1 (human)): 100%; kinase still bound, per cent of control (STK17A (human)): 100%; kinase still bound, per cent of control (MST1R (human)): 100%; kinase still bound, per cent of control (AAK1 (human)): 100%; kinase still bound, per cent of control (STK32C (human)): 100%; kinase still bound, per cent of control (LATS1 (human)): 100%; kinase still bound, per cent of control (NEK1 (human)): 100%; kinase still bound, per cent of control (PRKCE (human)): 100% |
